Results from patent publication US11040053B2, “Compositions and methods for activating “stimulator of interferon gene”13 dependent signalling” (CHINOOK THERAPEUTICS, INC., priority 2015, dated 2021).

Target: T1, human-STING(E149-S379)H232R protein (Homo sapiens, UniProt Q86WV6, H232R)
T1 construct: His6 (C); made in house; host or cells: E. coli
Assay: Surface Plasmon Resonance binding to hSTING WT
Conditions: Biacore T200, 15° C., steady-state analysis
Procedure: Binding of the mono- and di-F CDN compounds was assessed using Surface Plasmon Resononce to determine a binding constant. An E. coli expression construct (human-STING[E149-S379]H232R) was prepared harboring the protein sequence:
Aliquots were prepared and stored at −80° C. in 30 mM Tris pH 7.5/100 mM NaCl/10% glycerol.
N-terminal avi-tagged human-STING(E149-S379)H232R protein was immobilized (2500 RUs) on a streptavidin chip at 15° C. in a Biacore T200 (GE Healthcare). Titrations of cyclic dinucleotides (CDNs as indicated in Table 6) in 30 mM Tris pH 7.5/50 mM NaCL/0.005% Tween 20/1 mM DTT/2% DMSO, were profiled (30 μLs/min, 180 seconds for sample contact/120 seconds for dissociation) against hSTING at 15° C. Kinetic analysis of the data was performed using Biacore T200 Evaluation software. Steady-state analysis of the data was performed using Graphpad Prism 6.0 software, using one site-specific binding algorithm (Equation is Y=Bmax*X/(Kd+X)).

T1 sequence (Q86WV6 with tags, fused parts or gaps H232R): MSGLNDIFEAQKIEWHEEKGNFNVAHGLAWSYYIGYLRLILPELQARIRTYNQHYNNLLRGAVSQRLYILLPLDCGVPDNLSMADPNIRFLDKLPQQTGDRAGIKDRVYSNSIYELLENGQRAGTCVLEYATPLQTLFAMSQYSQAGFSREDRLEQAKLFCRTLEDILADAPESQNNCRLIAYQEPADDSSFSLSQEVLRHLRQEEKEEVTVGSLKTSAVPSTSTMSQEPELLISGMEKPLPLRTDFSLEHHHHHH

SMILES: Nc1ncnc2c1ncn2[C@@H]1O[C@@H]2CO[P@@](=O)(S)O[C@H]3[C@@H](F)[C@H](n4cnc5c(N)ncnc54)O[C@@H]3CO[P@@](=O)(S)O[C@H]2[C@H]1F [Compound 6, (2R,3R,3aR,5R,7aR,9R,10R,10aR,12R,14aR)-2,9-bis(6-amino-9H-purin-9-yl)-3,10-difluoro-5,12-dimercaptooctahydro-2H,7H-difuro[3,2-d:3′,2′-j][1,3,7,9]tetraoxa[2,8]diphosphacyclododecine 5,12-dioxide]
- Kd: 1 nM
